The values that follow come from patent publication US20190060298A1, “NEW DRUG FOR THE TREATMENT AND/OR PREVENTION OF DEPRESSIVE DISORDERS” (SORBONNE UNIVERSITE, priority 2013, published 2019).

Entries after “also recorded” stand apart in the source; their conditions may differ.

Test [1] concerns Nrf2. As to the kind of experiment: Nrf2 translocation in hippocampal HT22 cells. Format: cell-based. Particulars: 30 min, quercetin 10 μM; for nuclear Nrf2 translocation: BDNF 100 ng/ml, 7,8-DHF 10 μM. How it is done: (§1) Hippocampi were homogenized in ice-cold buffer A (10 mM Hepes, 150 mM NaCl, 1 mM EDTA, protease inhibitor cocktail [5 μl/ml] and phosphatase inhibitor cocktail [10 μl/ml]) and Nonidet P-40 (0.5%) was then added. After 10 min on ice, homogenates were centrifuged (1,200×g, 10 min, 4° C.). Supernatants were saved as the cytoplasmic fraction. Pellets were washed in ice-cold buffer A and sedimented by centrifugation at 1,200×g for 10 min at 4° C. Nuclear yield and integrity were checked by Giemsa staining and microscopy. Nuclei were resuspended in ice-cold buffer B (20 mM Hepes, 420 mM NaCl, 1.2 mM MgCl2, 0.2 mM EDTA, 25% glycerol, 0.5 mM DTT, protease inhibitor cocktail [5 μl/ml] and phosphatase inhibitor cocktail [10 μl/ml]). Samples were sonicated (15 s, 4° C.) and vortexed every 5 min for 20 min. The cytoplasmic and nuclear fractions were centrifuged at 20,000×g, for 30 min at 4° C. Supernatants were rapidly frozen in liquid nitrogen and stored at −80° C. A similar protocol was used for cell nuclear and cytosolic extracts.
40 μg of nuclear or cytosolic protein (or 20 μg for cell experiments) was resolved by SDS-polyacrylamide gel electrophoresis in a 12% polyacrylamide gel. The bands were transferred to nitrocellulose or PVDF membranes (Invitrogen, France) for immunoblotting according to standard procedures. We used the following antibody dilutions: 1:250 for rabbit polyclonal antibodies against Nrf2 (Santa Cruz Biotechnology, France), 1:500 for rabbit polyclonal antibodies against Keap1 (Santa Cruz Biotechnology) and 1:5000 for rabbit polyclonal antibodies against aconitase 2 (Gene Tex, France). A dilution of 1:10,000 was used for the fluorescent IRDye® 800CW secondary antibody (ScienceTec, Paris, France). Membranes were also probed with a mouse monoclonal antibody against GAPDH or a mouse monoclonal antibody against beta-actin (dilutions of 1:10,000 and 1:1,000, respectively, Sigma-Aldrich, France) and with the IRDye® 680CW secondary antibody from ScienceTec (1:10,000), to correct for protein loading. Images were acquired with the Odyssey® infrared imaging system (LI-COR Biosciences). Protein bands were quantified with Odyssey® software (version 3.0, LI-COR Biosciences). For SOD1, Prx2 and PrxSO2/SO3 analysis, we used the following antibody dilutions: 1:1000 for rabbit polyclonal antibodies against SOD (Euromedex), 1:2000 for rabbit polyclonal antibodies against PeroxiredoxinSO2/SO3 (Abcam), 1:1000 for rabbit polyclonal antibodies against Peroxiredoxin2 (Abcam). Horseradish peroxidase-conjugated secondary antibodies were used and membranes were developed with the ECL Plus detection reagent (Pierce, Rockford, Ill.). Images were acquired with a digital camera-based imaging system (ChemiDoc, Biorad) and analyzed with Quantity One software (Bio-Rad). […]

Test [2] concerns Keap1. As to the kind of experiment: Keap1 levels in hippocampal HT22 cells. The test is classed as cell-based. The following applies: 30 min, BDNF 100 ng/ml or 7,8-DHF 10 μM. How it is done:
as §1, with “A similar protocol was used for cell nuclear and cytosolic extracts.” left out
(§2) 40 μg of nuclear or cytosolic protein (or 20 μg for cell experiments) was resolved by SDS-polyacrylamide gel electrophoresis in a 12% polyacrylamide gel. […] Protein bands were quantified with Odyssey® software (version 3.0, LI-COR Biosciences). […] Images were acquired with a digital camera-based imaging system (ChemiDoc, Biorad) and analyzed with Quantity One software (Bio-Rad). […]

Test [3] concerns Nrf2. Nature of the test: Superfusion of the hippocampus, Nrf2 levels. More on the design: species or system Sprague-Dawley rats. The following applies: 7,8-DHF 10 μM, 1 h; for cytosolic Nrf2 concentration: perfused hippocampi. How it is done:
as §1
40 μg of nuclear or cytosolic protein (or 20 μg for cell experiments) was resolved by SDS-polyacrylamide gel electrophoresis in a 12% polyacrylamide gel. The bands were transferred to nitrocellulose or PVDF membranes (Invitrogen, France) for immunoblotting according to standard procedures. We used the following antibody dilutions: 1:250 for rabbit polyclonal antibodies against Nrf2 (Santa Cruz Biotechnology, France), 1:500 for rabbit polyclonal antibodies against Keap1 (Santa Cruz Biotechnology) and 1:5000 for rabbit polyclonal antibodies against aconitase 2 (Gene Tex, France). A dilution of 1:10,000 was used for the fluorescent IRDye® 800CW secondary antibody (ScienceTec, Paris, France). […] Protein bands were quantified with Odyssey® software (version 3.0, LI-COR Biosciences). […] Images were acquired with a digital camera-based imaging system (ChemiDoc, Biorad) and analyzed with Quantity One software (Bio-Rad). […]

The subject of test [4] is Keap1. As to the kind of experiment: Superfusion of the hippocampus, Keap1 levels. More on the design: species or system Sprague-Dawley rats. The following applies: perfused hippocampi of DF and control rats; 7,8-DHF 10 μM, 1 h. Here is the method:
as §1, with “A similar protocol was used for cell nuclear and cytosolic extracts.” left out
as §2

For test [5] the following is noted: intracerebroventricular administration; cited from earlier work.
Test [6] relates to patients suffering of bipolar depression. Particulars: cited from earlier work.

As to `O=c1cc(-c2ccccc2)oc2c(O)c(O)ccc12` [7,8-DHF, 7,8-dihydroxyflavone], the “nuclear Nrf2 translocation” value in test [1] is “induced a marked increase; also recorded: produced similar effects on Nrf2”; in test [3] (perfused hippocampi of defeated (DF, D5) and control rats), “induced a marked translocation of Nrf2 to the nuclear compartment; also recorded: induced Nrf2 translocation to the nucleus to the same level in defeated and control animals”. In test [2], the Keap1 levels result is on record as “not affected”. Also, the entries for the “cytosolic Nrf2 concentration” value in test [3] (DF animals (D5)) and in test [3] (control (C) animals) were “induced a decrease in cytosolic Nrf2 concentration; also recorded: decrease in cytosolic Nrf2 levels” and “tendency for this concentration to decrease”, respectively. The Keap1 concentration entry in test [4] is “no change in Keap1 concentration”. In test [5], the “neuroanatomical alterations (hippocampal CA3 dendritic retraction, increase of amygdala dendritic length)” value was “can prevent neuroanatomical alterations”. For the same molecule, the “occurrence of depressive profile” value in test [5] is on record as “prevent”.

For the molecule `CC(=O)N[C@@H](CS)C(=O)O` [N-acetylcysteine (NAC), N-acetylcysteine], the depression scores entry in test [6] was “induced a robust decrement in depression scores”.

`O=c1c(O)c(-c2ccc(O)c(O)c2)oc2cc(O)cc(O)c12` [quercetin]: in test [1], the “nuclear Nrf2 translocation” value is “induces a translocation of Nrf2 to the nucleus” and the Nrf2 cytosolic fraction result is on record as “decreased”.

B1: BDNF: brain derived neurotrophic factor, added to HT22 cell medium at 100 ng/ml (protein, UniProt P23560 19-247, looked up)
Neurotrophic factor BDNF …: APMKEANIRGQGGLAYPGVRTHGTLESVNGPKAGSRGLTSLADTFEHVIEELLDEDQKVRPNEENNKDADLYTSRVMLSSQVPLEPPLLFLLEEYKNYLDAANMSMRVRRHSDPARRGELSVCDSISEWVTAADKKTAVDMSGGTVTVLEKVPVSKGQLKQYFYETKCNPMGYTKEGCRGIDKRHWNSQCRTTQSYVRALTMDSKKRIGWRFIRIDTSCVCTLTIKRGR
In the case of B1, the “nuclear Nrf2 translocation” value in test [1] is “induced a marked increase; also recorded: produced similar effects on Nrf2”. The Keap1 levels entry in test [2] is “not affected”.
